Assay results as given in patent publication US20180370940A1, “SALICYLIC ACID DERIVATIVE, METHOD FOR PREPARING SAME, AND COSMETIC COMPOSITION FOR WHITENING COMPRISING SAME” (AMOREPACIFIC CORPORATION, priority 2015, published 2018).

Molecular target: Mushroom-derived tyrosinase
Experiment: Inhibitory effect on tyrosinase activity (mushroom tyrosinase, L-tyrosine substrate, absorbance at 490 nm)
Format: biochemical
Settings: for IC50: mushroom tyrosinase, 1.5 mM L-tyrosine, pH 6.5, 37° C. for 20 minutes, absorbance at 490 nm, read-out: Inhibition of tyrosinase activity (IC50); for inhibitory effect on tyrosinase activity (in words): at a concentration of 200 μM or less
Method: In order to investigate the tyrosinase activity inhibitory effect of the salicylic acid derivatives prepared in Examples 1 to 6, the following experiment was conducted. Mushroom-derived tyrosinase and tyrosine were purchased from Sigma Chemical. Each sample was treated with 150 microliters of 0.1 M phosphate buffer (pH 6.5), 8 microliters of mushroom tyrosinase (2,100 units/ml, 0.05 M phosphate buffer, pH 6.5) and 36 microliters of 1.5 mM L-tyrosine by concentration. After the enzymatic reaction was carried out at 37° C. for 20 minutes, the activity of tyrosinase was measured by measuring the absorbance at 490 nm using a microplate reader (Bio-Rad 3550, Richmond, Calif., U.S.A.). The inhibitory effect of tyrosinase of the salicylic acid derivatives prepared in Examples 1 to 6 was determined based on the following Equation (1). Tyrosinase inhibition ratio (%)=100−((Reaction absorbance of each sample/reaction absorbance of the control group)×100) [Equation 1] The concentration of each test substance which decreased the activity of tyrosinase by 50% was determined by the above Equation, and the obtained results are shown in Table 1.

| Structure (SMILES) | IC50 [µM] | inhibitory effect on tyrosinase activity (in words) |
| --- | --- | --- |
| Cc1ccc(O)c(C(=O)OCc2cc(=O)c(O)co2)c1 [Compound of Example 3, 2-hydroxy-5-methyl-benzoic acid 5-hydroxy-4-oxo-4H-pyran-2-ylmethyl ester] | 5.3 | – |
| COc1ccc(C(=O)OCc2cc(=O)c(O)co2)c(O)c1 [Compound of Example 5, 2-hydroxy-4-methoxy-benzoic acid 5-hydroxy-4-oxo-4H-pyran-2-ylmethyl ester] | 4.2 | – |
| Cc1cccc(C(=O)O)c1O [3-Methylsalicylic acid, reference compound] | > 200 | do not exhibit the inhibitory effect |
| Cc1cccc(C(=O)OCc2cc(=O)c(O)co2)c1O [Compound of Example 1, 2-hydroxy-3-methyl-benzoic acid 5-hydroxy-4-oxo-4H-pyran-2-ylmethyl ester] | 3.2 | – |
| O=c1cc(CO)occ1O [Kojic acid, reference compound] | 41 | – |
| COc1cccc(C(=O)O)c1O [3-Methoxysalicylic acid, reference compound] | > 200 | do not exhibit the inhibitory effect |
| COc1ccc(O)c(C(=O)OCc2cc(=O)c(O)co2)c1 [Compound of Example 6, 2-Hydroxy-5-methoxy-benzoic acid 5-hydroxy-4-oxo-4H-pyran-2-ylmethyl ester] | 3.29 | – |
| COc1cccc(C(=O)OCc2cc(=O)c(O)co2)c1O [Compound of Example 4, 2-hydroxy-3-methoxy-benzoic acid 5-hydroxy-4-oxo-4H-pyran-2-ylmethyl ester] | 4.21 | – |
| Cc1ccc(C(=O)OCc2cc(=O)c(O)co2)c(O)c1 [Compound of Example 2, 2-hydroxy-4-methyl-benzoic acid 5-hydroxy-4-oxo-4H-pyran-2-ylmethyl ester] | 1.51 | – |
